We go through 14 compounds from PubChem BioAssay (NCI).

Holding throughout (assay): growth of human tumour cells (NCI), 48 h
In assay [1] the test system is SF-268 CNS.
The test system of assay [2] is HCT-15 colon.
In assay [3] the test system is SN12C renal.
The subject of assay [4] is SNB-19 CNS.
Assay [5] relates to SK-MEL-5 melanoma.
In assay [6] the test system is NCI-H23 lung.
Assay [7] deals with UACC-62 melanoma.
The test system of assay [8] is DU-145 prostate.
Assay [9] concerns M14 melanoma.
The test system of assay [10] is HT29 colon.

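Step 1: Grow cells in 96-well plates. Step 2: Expose to compound for 48 hours at 5 concentrations. Step 3: Interpolate endpoints linearly; if unreached, use highest concentration. At the GI50, growth is halved. TGI is the concentration that stops growth completely.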

Regarding `FC(F)(F)c1ccc(-c2nc(-c3nc4cc(Cl)c(Cl)cc4[nH]3)c3ccccn23)cc1`, the GI50 in assay [1] was 4.19 µM; in [2] it was 30.5 µM; in assay [3], over 100 µM; in assay [4] it was 6.88 µM; in assay [5] it was 4.2 µM; in assay [6], 6.57 µM. The GI50 in assay [7] was 15.6 µM. Moreover, the TGI in assay [1], in [2], in assay [3], in assay [4], in [5] and in assay [6] was over 100 µM each time. The compound further yielded a TGI in [7] of over 100 µM.

Regarding `CCC(C)[C@H](NC(=O)[C@H](Cc1ccccc1)NC(=O)N(CC)c1ccccc1)C(=O)N[C@@H](CC(C)C)C(=O)OC` (stereo not given in full), the TGI was over 100 µM in [1]; over 100 µM in assay [2]; over 100 µM in [3]; over 100 µM in assay [4]; over 100 µM in assay [8]; 59.8 µM in [5]. For the same compound, the TGI in assay [9], in [6] and in assay [7] was over 100 µM throughout.

Turning to `O=c1cnn(C/C=C\CO)c(=O)[nH]1`, the TGI in assay [1], in assay [2], in assay [3], in assay [4], in [8] and in assay [5] was over 100 µM each time. Also, the TGI in [9] and in assay [6] was over 100 µM in each case.

Turning to `O=c1c2ccccc2oc2nc3n(c(=O)c12)CCCS3`, the TGI in assay [1], in assay [2], in [3], in assay [4], in assay [8] and in assay [5] was over 100 µM throughout. For the same compound, the TGI in assay [9], in assay [6] and in [7] was over 100 µM each time.

With `COc1cc2c(cc1OCCCN1CCN(CCCOc3cc4c(cc3OC)C(=O)N3CCC[C@H]3C=N4)CC1)C=CC(C)(C)O2`, the GI50 in [3] was 0.584 µM; in [4], 2.22 µM; in assay [8], 0.889 µM; in assay [5] it was 1.27 µM; in [9], 1.34 µM; in assay [6], 1.53 µM. Also, in assay [7], the GI50 is 1.42 µM. Also, the TGI in [3] was 1.95 µM; in [8], 2.1 µM; in assay [5] it was 2.53 µM; in assay [9], 2.62 µM; in [6] it was 3.04 µM; in assay [7], 2.73 µM.

For `CN(C)c1nc2sc3c(c2c(=O)o1)CCCC3`, the TGI in [2], in assay [3], in assay [4], in [10], in assay [8] and in assay [5] was over 100 µM in each case. Also, the TGI in assay [9], in assay [6] and in assay [7] was over 100 µM in each case.

Turning to `CN(C)CC(/C(Cc1ccccc1)=N\NC(=O)C[n+]1ccccc1)c1ccccc1` (stereo not given), the TGI in [1], in assay [2], in [3], in assay [4], in assay [10] and in [5] was over 100 µM in each case. Further, the TGI in assay [9], in assay [6] and in assay [7] was over 100 µM each time.

For the compound `O=S(=O)(Oc1ccc2oc3ccccc3c2c1-c1c(OS(=O)(=O)C(F)(F)F)ccc2oc3ccccc3c12)C(F)(F)F`, the TGI in [1], in assay [2], in assay [4], in [10], in assay [8] and in assay [5] was over 100 µM throughout. Further, the TGI in [9], in assay [6] and in assay [7] was over 100 µM each time.

Regarding `O=C(CSc1nnc(-c2ccc(N=Cc3ccc(Cl)cc3)cc2)o1)Nc1ccccc1Cl`, the TGI in assay [1], in assay [2], in [4], in [10], in assay [5] and in assay [9] was over 100 µM in each case. The TGI in [6] and in [7] was over 100 µM throughout.

Turning to `O=C(Nc1c(O)[nH]c(=S)[nH]c1=O)c1ccccn1`, the TGI in assay [1], in assay [2], in assay [3], in [4], in [10] and in [5] was over 100 µM throughout. Besides, the TGI in [9], in assay [6] and in [7] was over 100 µM each time.

For `C[N+]1(C)CCCC1C(=O)[O-]` (stereo not given), the TGI in assay [1], in assay [2], in assay [3], in [4], in assay [10] and in [9] was over 100 µM each time. In addition, the TGI in assay [6] and in [7] was over 100 µM each time.

On to `Nc1nc(N)c2ncn(CC3CCC(CO)C3)c2n1` (stereo not given), for which the TGI in assay [1], in [2], in assay [3], in assay [4], in assay [8] and in [5] was over 100 µM in each case. Besides, the TGI in assay [9] and in [7] was over 100 µM in each case.

As to `Cc1c2cc[nH]c(C(F)(F)F)c2cc2c1nc1ccccc12`, the TGI in assay [1], in assay [2], in assay [3], in [4], in assay [10] and in assay [5] was over 125 µM in each case. Further, the TGI in [6] and in [7] was over 125 µM each time.

Turning to `O=C1N[C@H]2c3c(Cl)sc(Cl)c3/C(=N/O)[C@H]2O1`, the TGI in assay [1], in assay [2], in [3], in assay [4], in [10] and in assay [8] was over 100 µM in each case. For the same compound, the TGI in assay [5], in [9] and in assay [7] was over 100 µM in each case.
